Results from PMC10819430, “Binding Affinity and Mechanism of Six PFAS with Human Serum Albumin: Insights from Multi-Spectroscopy, DFT and Molecular Dynamics Approaches” (Toxics, 2024).
Where two headings read alike, the source gives them in different places.

Key:
[1] = human body, cited from earlier work
[2] = target: T1, Human Serum Albumin (HSA) (Homo sapiens, UniProt P02768); assay: Fluorescence quenching of HSA by PFAS (Stern–Volmer, double logarithmic and Van't Hoff analysis); type: binding
T1 construct: HSA (≥96%) and six PFAS were all purchased from Aladdin Chemicals (Shanghai, China); purchased Aladdin Chemicals (Shanghai, China)
T1 sequence (P02768 25-609): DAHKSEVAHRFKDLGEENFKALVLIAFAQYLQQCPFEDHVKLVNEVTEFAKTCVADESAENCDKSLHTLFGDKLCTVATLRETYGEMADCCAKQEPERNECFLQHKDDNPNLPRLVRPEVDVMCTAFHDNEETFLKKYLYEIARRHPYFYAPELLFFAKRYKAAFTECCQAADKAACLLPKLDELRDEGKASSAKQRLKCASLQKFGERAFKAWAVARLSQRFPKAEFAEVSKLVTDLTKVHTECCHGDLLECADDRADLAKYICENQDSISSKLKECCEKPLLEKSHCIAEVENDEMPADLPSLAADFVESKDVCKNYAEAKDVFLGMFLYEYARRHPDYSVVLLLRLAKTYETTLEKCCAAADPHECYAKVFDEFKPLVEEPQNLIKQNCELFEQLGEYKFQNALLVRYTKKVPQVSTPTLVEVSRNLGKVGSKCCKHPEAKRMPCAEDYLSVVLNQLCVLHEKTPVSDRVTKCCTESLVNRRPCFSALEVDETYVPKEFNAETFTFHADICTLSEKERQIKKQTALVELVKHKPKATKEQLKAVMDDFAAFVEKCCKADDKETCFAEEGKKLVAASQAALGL
Method: Fluorescence quenching experiments greatly benefit studies on the interactions between ligands and proteins. Initially, 3 mL of HSA stock solution was put into a 10 mm square quartz cuvette. Following that, PFAS stock solution was gradually added to achieve various final concentrations, namely 0, 3, 6, 9, 12, 15, 18 × 10^−6 mol·L^−1. By incrementally increasing the molar ratio of PFAS vs. HSA up to 18, their binding characteristics can be better investigated.
A thermostat (TR-01A, Bishui Corp, Beijing, China) was used to precisely control the solution temperature, which was set at 298, 304, and 310 K. This device includes a temperature controller and a metal heating cuvette module in conjunction with a fluorometer. This thermostat has a temperature range of 20–60 °C (293–333 K) and an accuracy of 0.1 °C Celsius. This step is critical for keeping the experimental conditions stable. Following that, the samples were fluorescence-scanned with a fluorometer (Cary Eclipse, Agilent, CA, USA). The excitation wavelength was set at 275 nm to efficiently stimulate tryptophan (Trp) and tyrosine (Tyr) residues. Additional test parameters include an emission of 275–500 nm, scanning rate of 1200 nm/min and PTV voltage of 700 v. Fluorescence quenching experiments were repeated three times, and the average values were taken for further calculation.
Fluorescence internal filtration (IFE) refers to the phenomenon where the fluorescence intensity decreases during fluorescence measurement due to the absorption of excitation or emission light by sample components (small molecules or proteins) in solution [19, 20]. This phenomenon is more obvious in the samples with a high concentration of adsorbent. A fluorescence correction formula was used in this study to correct the IFE effect on the data, as follows: Fcorr=Fobs×10^Aex+Aem/2 where Fcorr and Fobs are corrected and observed fluorescence emission intensities, respectively, Aex and Aem are UV-vis absorbances at the excitation and emission wavelengths.
The quenching constant can be calculated using the Stern–Volmer Equation (3). The results are shown in Table 2 and Figure 1: F0/F=1+Kqτ0=1+KsvQ where F0 and F refer to HSA fluorescence intensities without and with the quencher (PFAS solution); Kq is the biomacromolecule’s quenching rate constant; τ0 is the average fluorescence lifetime of the fluorescent molecule when the quencher PFAS is absent, usually taken as 10^−8 s; [Q] is the PFAS concentration; Ksv is the Stern–Volmer quenching constant; F0/F is the vertical axis; the Stern–Volmer curves of this system are 298, 304, and 310 K.
The double logarithmic formula can be used to calculate the binding constants and binding site numbers of HSA–PFAS complexes: logF0−F/F=logKb+nlogQ where F0 and F are parameters representing the initial fluorescence intensity and the fluorescence intensity after adding PFAS, respectively. The binding characteristics are represented by the binding constant, Kb, and the number of binding sites, n. The slope of the straight line is the number of binding sites, n, and the binding constant Kb is obtained from the exponent of the straight line’s intercept using the double logarithmic graph. Figure A2 and Table 2 show the calculation results.
The enthalpy change (∆H), entropy change (∆S), and free energy change (∆G) calculated from the Van’t Hoff equation [50] can be used to determine the type of interaction. lnKb=−ΔH/RT+ΔS/R ΔG=ΔH−TΔS=−RTlnKb where R represents the ideal gas constant (8.314 J·mol^−1·K^−1).

[3] = target: T2, HSA (Homo sapiens, UniProt P02768); assay: Competitive probe experiment (warfarin, ibuprofen, lidocaine); type: binding
T2 construct: HSA (≥96%) and six PFAS were all purchased from Aladdin Chemicals (Shanghai, China); purchased Aladdin Chemicals (Shanghai, China)
T2 sequence (P02768 25-609): as above
Description: Competitive probe experiments are commonly used to identify specific binding sites in the structure of proteins. Three probe molecules known to bind to distinct binding sites on HSA were selected: warfarin (subdomain IIA), ibuprofen (subdomain IIIA), and lidocaine (subdomain IIB). These probe molecules would compete with PFAS for the same protein sites when binding with HSA. The potential binding sites can be inferred by monitoring and comparing changes in fluorescence intensity when probe molecules are present.

[4] = target: T2, HSA; assay: Circular dichroism (CD) spectrum, secondary structure of HSA; conditions: HSA:PFAS 1:18, 298 K
Description: CD measurements (190–260 nm) were taken before and after the addition of PFAS to HSA using a J-815 CD spectrometer equipped with a PMT detector (JASCO, Tokyo, Japan). The protein concentration was set at 1 × 10^−6 mol/L, with a fixed HSA-to-PFAS concentration ratio of 1:18. The scanning rate was set to 100 nm/min with 0.5 nm increments, and the photometric mode of HT. Each sample was scanned three times. The blank buffer control was automatically subtracted during the scanning process. All tests were carried out at 298 K. The CONTIN analysis method from the DichroWeb was employed to determine the contents of the protein’s secondary structure.

[5] = target: T2, HSA; assay: 3D-EEM fluorescence spectra of HSA–PFAS; conditions: HSA 1 × 10^−6, PFAS 1.8 × 10^−5 mol·L^−1
Method: The 3D-EEM spectra were recorded using specific scanning parameters at the scanning rate of 2400 nm·min^−1, an […] with 5 nm increments, and an emission of 280–550 nm with 2 nm increments. The concentrations of PFAS and HSA were set at 18 × 10^−6 mol·L^−1 and 1 × 10^−6 mol·L^−1, respectively.

In the case of `O=C(O)C(F)(F)C(F)(F)C(F)(F)C(F)(F)C(F)(F)C(F)(F)C(F)(F)F` [PFOA, Perfluorooctanoic Acid], the average half-life ([1]; study on 19 PFAS) is given as “approximately 2.47 years”, the average half-life [1] is given as 3.8 years and the fluorescence quenching mechanism [2] is given as “mixed quenching”. The “Kq (quenching rate constant)” value ([2]; 298 K) was 1.39e+12 L/mol/s, the “quenching of HSA fluorescence intensity” value ([2]; PFAS 1.8 × 10^−5 mol·L^−1, HSA 1 × 10^−6 mol·L^−1, 298 K) was 20.1% and the “KSV (Stern–Volmer quenching constant)” value ([2]; T = 298 K) was 1.39 ± 0.07 × 10^4 L·mol^−1. For the same compound, the “n (number of binding sites)” value ([2]; T = 298 K) was 1.26 ± 0.04, the ΔG ([2]; T = 298 K) was -7.302 kcal/mol and the “Kq (quenching rate constant)” value ([2]; T = 298 K, τ0 taken as 10^−8 s) was 1.39 ± 0.07 × 10^12 L·mol^−1·s^−1. For the same compound, the “KSV (Stern–Volmer quenching constant)” value ([2]; T = 304 K) was 1.46 ± 0.09 × 10^4 L·mol^−1, the “n (number of binding sites)” value ([2]; T = 304 K) was 1.31 ± 0.02 and the ΔG ([2]; T = 304 K) was -7.851 kcal/mol. For the same compound, the “Kq (quenching rate constant)” value ([2]; T = 304 K, τ0 taken as 10^−8 s) was 1.46 ± 0.09 × 10^12 L·mol^−1·s^−1, the “KSV (Stern–Volmer quenching constant)” value ([2]; T = 310 K) was 1.47 ± 0.11 × 10^4 L·mol^−1 and the “n (number of binding sites)” value ([2]; T = 310 K) was 1.47 ± 0.03. For the same compound, the ΔG ([2]; T = 310 K) was -9.003 kcal/mol, the “Kq (quenching rate constant)” value ([2]; T = 310 K, τ0 taken as 10^−8 s) was 1.47 ± 0.11 × 10^12 L·mol^−1·s^−1 and the ΔH ([2]; Van't Hoff, 298–310 K) was 35.057 ± 1.53 kcal/mol. The ΔS ([2]; Van't Hoff, 298–310 K) was 593.3 ± 22.7 J·mol^−1·K^−1, the “HSA fluorescence peak position after PFAS addition (blue shift from 337 nm)” value ([2]; as the concentration of PFAS increases) was 320 nm and the “affinity for HSA” value ([2]; fluorescence quenching experiments) was “high affinity”. For the same compound, the “main interaction force from thermodynamic analysis” value ([2]; signs of ΔH and ΔS) was “hydrophobic interactions”, the “φ (rate of decrease in Kb)” value ([3]; lidocaine probe) was 8.1% and the “φ (rate of decrease in Kb)” value ([3]; warfarin probe) was 96.1%. The “HSA secondary structure: β-Sheet” value ([4]; HSA alone 4.9) was 6.4%, the “HSA secondary structure: β-Turn” value ([4]; HSA alone 16.9) was 15.8% and the “HSA secondary structure: Random Coil” value ([4]; HSA alone 36.7) was 40.5%. The “HSA secondary structure: α-Helix” value ([4]; HSA alone 41.6) was 37.2%, the “3D-EEM Peak A Position λex/λem” value [5] was 280/336 and the “3D-EEM Peak B Position λex/λem” value [5] was 230/327. The “3D-EEM Peak A Intensity F” value ([5]; HSA alone 673.66) was 476.59 a.u and the “3D-EEM Peak B Intensity F” value ([5]; HSA alone 996.906) was 812.58 a.u.
